Here are results for three compounds from PMC12839112, “Synthesis and Bioactivity Assessment of Novel Quinolinone–Triazole Hybrids” (Biomolecules, 2025).

Data set [1] is described as follows: Inhibition of linoleic acid peroxidation induced by AAPH radical. The note with it: 100 μM, 37 °C, pH 7.4. How it is done: The in vitro assays were performed at a concentration of 100 µM (a 10 mM stock solution in DMSO was used, from which several dilutions were made for the determination of IC50 values), at least in triplicate, and the standard deviation of absorbance was less than 10% of the mean. The compounds were diluted in 0.1% DMSO under sonification in an appropriate buffer in several dilutions. Statistical comparisons were made using Student’s t-test. A statistically significant difference was defined as p < 0.05. The results were compared to the corresponding reference compounds.
The determination of the ability of the synthesized compounds to inhibit linoleic acid peroxidation induced by the radical initiator 2,2-Azobis(2-amidinopropane) dihydrochloride (AAPH) was performed according to Hadjipavlou-Litina et al.. Ten microliters of the 16 mM sodium linoleate solution were added to the UV cuvette containing 0.93 mL of a 0.05 M phosphate buffer, pH 7.4, pre-thermostated at 37 °C. The oxidation reaction was initiated at 37 °C under air by the addition of 50 µL of a 40 mM AAPH solution, which was used as a free radical initiator. Oxidation was carried out in the presence of aliquots (10 µL) in the assay without antioxidants and monitored at 234 nm. Lipid oxidation was recorded in the presence of the same level of DMSO served as a negative control. results are compared to the appropriate standard compound Trolox.
In an attempt to assess the in vitro antioxidant potential of the synthesized compounds, their inhibitory activity against lipid peroxidation of linoleic acid sodium salt was examined, induced by AAPH radical under atmospheric oxygen at 37 °C. The anti-lipid peroxidation was recorded with UV spectrophotometrically. The assay is a quick and widely used method for the assessment of antioxidant activity.

A short description of another data set: in vitro. Conditions: human.
A further data set concerns A375 cell line. In words: Cytotoxicity, MTT assay, A375 cells. The note with it: Homo sapiens, A-375, 24 h, read-out: % Cytotoxicity A375 (100 μΜ). In general terms: Tetrazolium assays rely on reduction of a dye to a coloured formazan, in cell work by metabolically active cells.
In data set [2] the target is T1, soybean lipoxygenase (LOX) (Glycine max, UniProt P08170).
T1 sequence (P08170 1-839): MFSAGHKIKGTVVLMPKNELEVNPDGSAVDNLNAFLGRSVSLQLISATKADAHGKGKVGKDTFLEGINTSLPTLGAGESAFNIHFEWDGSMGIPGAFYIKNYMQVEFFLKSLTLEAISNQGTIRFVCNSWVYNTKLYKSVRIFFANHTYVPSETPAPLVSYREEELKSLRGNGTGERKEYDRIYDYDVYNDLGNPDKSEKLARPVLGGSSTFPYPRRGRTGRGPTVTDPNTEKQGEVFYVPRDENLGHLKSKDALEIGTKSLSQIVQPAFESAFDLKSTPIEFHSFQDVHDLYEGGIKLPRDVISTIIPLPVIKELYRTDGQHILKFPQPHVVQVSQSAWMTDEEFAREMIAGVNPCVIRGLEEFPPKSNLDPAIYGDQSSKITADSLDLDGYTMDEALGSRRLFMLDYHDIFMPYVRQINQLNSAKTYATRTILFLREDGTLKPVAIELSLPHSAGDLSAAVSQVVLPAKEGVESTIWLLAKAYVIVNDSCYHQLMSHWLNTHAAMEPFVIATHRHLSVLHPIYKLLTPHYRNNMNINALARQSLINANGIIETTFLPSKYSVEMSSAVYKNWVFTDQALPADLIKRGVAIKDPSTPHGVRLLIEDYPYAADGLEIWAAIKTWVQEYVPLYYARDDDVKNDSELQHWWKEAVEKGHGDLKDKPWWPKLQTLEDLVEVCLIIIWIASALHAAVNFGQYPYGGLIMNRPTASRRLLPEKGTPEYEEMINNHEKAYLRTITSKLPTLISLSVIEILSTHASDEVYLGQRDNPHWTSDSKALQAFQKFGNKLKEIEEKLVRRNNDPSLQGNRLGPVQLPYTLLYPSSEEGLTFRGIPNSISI
The data set is described as follows: Soybean LOX inhibition in vitro. The note with it: for inhibition at 100 µM: 100 μM (0.1 mM), read-out: Inhibition of LOX (% at 100 μΜ). The data set is classed as biochemical. The protocol:
The compounds were diluted in 0.1% DMSO under sonification in an appropriate buffer in several dilutions. Statistical comparisons were made using Student’s t-test. A statistically significant difference was defined as p < 0.05.
The determination of the inhibition of soybean LOX for the synthesized compounds was performed according to Hadjipavlou-Litina et al.. The tested compounds were incubated at room temperature with sodium linoleate (0.1 mM) and 0.2 mL of enzyme solution (1/9 × 10^−4 w/v in saline). The method was based on the conversion of sodium linoleate to 13-hydroperoxylinoleic acid at 234 nm. In order to determine the […] values, different concentrations were used.
As evidence of anti-inflammatory activity, the quinolinone derivatives were examined for their ability to inhibit soybean lipoxygenase (LOX). LOX catalyzes the cleavage of arachidonic acid to leukotrienes that are found to play a crucial role in the pathogenesis of some inflammatory diseases.

The subject of another data set is A549 cell line. In words: Cytotoxicity, MTT assay, A549 cells. Conditions: Homo sapiens, A549, 24 h, read-out: % Cytotoxicity A549 (100 μΜ).
The nature of data set [3]: Cell viability, MTT assay, HaCaT cells. Conditions: human.
Protocol: (§1) The determination of the cell viability of HaCaT cells and the cell toxicity of A549 and A375 cell lines was performed according to Myriagkou et al. [57], via the MTT (3-(4,5-dimethylthiazol-2-yl)-2,5-diphenyltetrazolium bromide) assay. In a 96-well plate, cells were seeded at specific concentrations (30 × 10^4 cells/mL for HaCaT cells and 20 × 10^4 cells/mL for A549 and A375 cells) and incubated (37 °C, 5% CO2) for 24 h. Following this first incubation period, solutions of the tested compounds at various concentrations were added to the cells, and the plates were incubated for an additional 24 h. Upon the second incubation period, the appropriate volume of MTT solution (1 mg/mL in PBS, filtrated through a 0.22-μm filter) was added to each well, and the plate was incubated for 4 h, during which formazan crystals were formed. The crystals were dissolved by addition of 100 μL od DMSO in each cell and after 30 min of stirring, the absorbance was recorded at 450 nm using a microplate reader. All tests were undertaken on three replicates and compared to the control (untreated cells), the blank (medium), and the reference control (cells treated with 100 μM silibinin).
(§2) The cytotoxicity of the novel compounds was also measured via the mehtylthiazol tetrazolium (MTT) assay.

Protocol for A375 cell line: as §1, §2
Protocol for A549 cell line: as §1, §2

For `C#CCNC(=O)c1c(O)c2ccccc2n(CCCc2ccccc2)c1=O` [4f, 4-hydroxy-2-oxo-1-(3-phenylpropyl)-N-(prop-2-yn-1-yl)-1,2-dihydroquinoline-3-carboxamide], the “Inhibition of Linoleic Acid Peroxidation (% at 100 μΜ)” value (from here on “Inhibition … (% at 100 μΜ)”) in data set [1] worked out at 81.1%. Moreover, the viability at 24 h, 100 µM in “in vitro” worked out at 76.9%. For the same compound, the cytotoxicity at 100 µM in the data set on A375 cell line and with A549 cell line was 0% throughout. For the same compound, the inhibition at 100 µM in data set [2] came out at 49.3%.
As for `CC(C)=CCn1cc(CNC(=O)c2c(O)c3ccccc3n(CC=Cc3ccccc3)c2=O)nn1` [5h, 1-cinnamyl-4-hydroxy-N-((1-(3-methylbut-2-en-1-yl)-1H-1,2,3-triazol-4-yl)methyl)-2-oxo-1,2-dihydroquinoline-3-carboxamide], the “Inhibition … (% at 100 μΜ)” value in data set [1] was found to be 18.7%. Moreover, the cytotoxicity at 100 µM with A375 cell line and with A549 cell line was 0% each time. The viability at 24 h, 100 µM in data set [3] was 98.9%. Further, in data set [2], the inhibition at 100 µM was determined as 44.5%.
As to `CC(C)=CCn1cc(CNC(=O)c2c(O)c3ccccc3n(Cc3ccccc3)c2=O)nn1` [5j, 1-benzyl-4-hydroxy-N-((1-(3-methylbut-2-en-1-yl)-1H-1,2,3-triazol-4-yl)methyl)-2-oxo-1,2-dihydroquinoline-3-carboxamide], the “Inhibition … (% at 100 μΜ)” value in data set [1] came to 92.0%. Besides, the cytotoxicity at 100 µM came to 0% with A375 cell line and 18.8% in the data set with A549 cell line. The same compound registered a viability at 24 h, 100 µM in data set [3] of 100%. In addition, the IC50 in data set [2] (sodium linoleate substrate) amounted to 41 µM.

For orientation: viability means the share of living cells, or the viability signal relative to a control. High values mean better survival, low ones a greater loss of cells. For orientation: inhibition means the relative decrease from the control value, in per cent. What is called IC50 is the concentration needed to halve the response being measured.
